Molecular target: BCL-2 recombinant protein (Homo sapiens, UniProt P10415)
Test: Cell free Bcl-2:Bak affinity assay (Bcl-2 Bak), HTRF competition of FAM-Bak peptide
Format: binding
Conditions: 1 μM compound, 4 nM BCL-2 recombinant protein, 100 nM FAM-Bak, read-out: potency (% inhibition at 1 μM)
Summary of the method: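 Compounds in 10-point 3-fold dilution preincubated 10 min at RT with 4 nM GST-BCL-2 (20 mM K phosphate pH 7.5, 50 mM NaCl, 1 mM EDTA, 0.005% Triton X-100), then 100 nM FAM-Bak 10 min, anti-GST-Tb added, 60 min RT dark. HTRF read; % inhibition vs DMSO and positive control, IC50 from curve fit.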

Sequence of BCL-2 recombinant protein (P10415 whole entry): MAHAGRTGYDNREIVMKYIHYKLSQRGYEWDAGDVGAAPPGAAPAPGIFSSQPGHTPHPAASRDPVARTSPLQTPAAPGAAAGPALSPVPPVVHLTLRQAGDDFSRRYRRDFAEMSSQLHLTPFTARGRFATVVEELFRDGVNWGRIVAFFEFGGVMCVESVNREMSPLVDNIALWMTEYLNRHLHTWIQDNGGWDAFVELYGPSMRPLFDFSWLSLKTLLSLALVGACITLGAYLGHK

Cc1c(Cl)c(C(=O)NS(=O)(=O)c2ccc(N3CCN(CC4=C(c5ccc(Cl)cc5)CC(C)(C)CC4)CC3)cc2)cc([N+](=O)[O-])c1NCC1CCOCC1 [Example 42, 2-Chloro-N-([4-[4-[[2-(4-chlorophenyl)-4,4-dimethylcyclohexen-1-yl]methyl]piperazin-1-yl]phenyl]sulfonyl)-3-methyl-5-nitro-4-(tetrahydropyran-4-ylmethylamino)benzamide]
inhibition at 1 µM: > 90%
